# Assay results reported in ChEMBL document CHEMBL4390652, “Design, biological evaluation and X-ray crystallography of nanomolar multifunctional ligands targeting simultaneously acetylcholinesterase and glycogen synthase kinase-3” (Eur J Med Chem, 2019).
# Assays:
# [1] = target: Macrophage colony-stimulating factor 1 receptor (Homo sapiens) (UniProt P07333); test: Binding affinity to wild-type human partial length CSF1R (I564 to S939 residues) expressed in bacterial expression system assessed as residual binding level at 10 uM by Kinomescan method relative to control
# Chain of Macrophage colony-stimulating factor 1 receptor (Homo sapiens) (P07333 whole entry, the tested form may be a part): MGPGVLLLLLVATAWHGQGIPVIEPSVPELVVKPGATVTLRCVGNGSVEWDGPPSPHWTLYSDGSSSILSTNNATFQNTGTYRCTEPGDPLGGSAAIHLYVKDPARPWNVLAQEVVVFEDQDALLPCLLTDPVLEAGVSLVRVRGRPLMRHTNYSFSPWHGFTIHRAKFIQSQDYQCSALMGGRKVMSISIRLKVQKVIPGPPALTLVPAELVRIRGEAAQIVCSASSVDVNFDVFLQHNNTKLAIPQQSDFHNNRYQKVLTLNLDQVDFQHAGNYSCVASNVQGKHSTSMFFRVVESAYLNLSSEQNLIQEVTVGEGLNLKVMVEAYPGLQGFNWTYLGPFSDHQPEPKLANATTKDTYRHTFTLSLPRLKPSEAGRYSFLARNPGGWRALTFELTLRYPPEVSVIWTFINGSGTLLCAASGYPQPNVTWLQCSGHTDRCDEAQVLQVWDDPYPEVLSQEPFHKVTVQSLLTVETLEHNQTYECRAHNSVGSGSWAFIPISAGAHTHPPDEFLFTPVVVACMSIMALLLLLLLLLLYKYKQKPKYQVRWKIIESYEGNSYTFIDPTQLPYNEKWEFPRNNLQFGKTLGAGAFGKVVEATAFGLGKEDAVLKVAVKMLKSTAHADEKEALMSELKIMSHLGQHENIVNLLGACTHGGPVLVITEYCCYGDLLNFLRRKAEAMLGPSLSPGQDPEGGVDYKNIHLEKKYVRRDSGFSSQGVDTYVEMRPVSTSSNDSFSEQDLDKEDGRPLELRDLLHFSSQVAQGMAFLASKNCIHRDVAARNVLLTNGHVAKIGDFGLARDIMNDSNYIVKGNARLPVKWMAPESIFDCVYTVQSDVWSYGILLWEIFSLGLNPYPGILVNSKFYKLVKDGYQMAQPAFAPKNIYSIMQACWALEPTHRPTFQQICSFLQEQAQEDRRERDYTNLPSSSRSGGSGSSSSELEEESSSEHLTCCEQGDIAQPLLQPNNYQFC
# [2] = test system: PC-3; test: Cytotoxicity against human PC3 cells assessed as growth inhibition incubated for 48 hrs by Hoechst 33342 staining based assay; type: cell-based; details: PC-3, 48 h
# [3] = target: Epidermal growth factor receptor (Homo sapiens) (UniProt P00533); test: Binding affinity to wild-type human partial length EGFR (R669 to V1011 residues) expressed in bacterial expression system assessed as residual binding level at 10 uM by Kinomescan method relative to control
# [4] = target: Serine/threonine-protein kinase TBK1 (Homo sapiens) (UniProt Q9UHD2); test: Binding affinity to wild-type human full length TBK1 (M1 to L729 residues) expressed in mammalian expression system assessed as residual binding level at 10 uM by Kinomescan method relative to control
# [5] = target: Ribosomal protein S6 kinase alpha-3 (Homo sapiens) (UniProt P51812); test: Binding affinity to wild-type human partial length C-terminal RSK2 kinase domain 2 (V402 to S715 residues) expressed in mammalian expression system assessed as residual binding level at 10 uM by Kinomescan method relative to control
# Chain of Ribosomal protein S6 kinase alpha-3 (Homo sapiens) (P51812 whole entry, the tested form may be a part): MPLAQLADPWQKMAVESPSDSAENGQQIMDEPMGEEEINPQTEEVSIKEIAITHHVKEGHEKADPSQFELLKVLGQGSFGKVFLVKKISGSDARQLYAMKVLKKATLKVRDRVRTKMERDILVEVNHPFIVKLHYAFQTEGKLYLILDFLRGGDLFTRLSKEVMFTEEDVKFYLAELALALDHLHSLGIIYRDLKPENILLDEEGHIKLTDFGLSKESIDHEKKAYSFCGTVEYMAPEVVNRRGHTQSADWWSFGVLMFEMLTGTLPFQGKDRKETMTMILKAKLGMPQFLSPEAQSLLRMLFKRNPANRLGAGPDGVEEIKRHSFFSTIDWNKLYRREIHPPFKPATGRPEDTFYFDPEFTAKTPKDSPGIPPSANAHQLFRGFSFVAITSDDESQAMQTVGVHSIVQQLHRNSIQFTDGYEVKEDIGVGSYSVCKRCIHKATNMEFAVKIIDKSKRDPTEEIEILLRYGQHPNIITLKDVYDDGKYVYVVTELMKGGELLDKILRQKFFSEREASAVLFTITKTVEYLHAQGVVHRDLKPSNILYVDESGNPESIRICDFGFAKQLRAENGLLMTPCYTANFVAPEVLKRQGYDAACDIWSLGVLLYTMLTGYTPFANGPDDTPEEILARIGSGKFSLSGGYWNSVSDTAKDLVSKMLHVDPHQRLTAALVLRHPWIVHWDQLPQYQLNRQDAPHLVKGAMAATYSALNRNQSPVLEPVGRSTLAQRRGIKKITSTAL
# [6] = test system: Tyrosine-protein kinase ABL1 (Homo sapiens), P00519 [F317L]; test: Binding affinity to human non-phosphorylated ABL1 F317L mutant (S229 to K512 residues) expressed in mammalian expression system assessed as residual binding level at 10 uM by Kinomescan method relative to control
# [7] = test system: Epidermal growth factor receptor (Homo sapiens), P00533 [UNDEFINED MUTATION]; test: Binding affinity to human partial length EGFR E746-A750del mutant expressed in bacterial expression system assessed as residual binding level at 10 uM by Kinomescan method relative to control
# Chain of Epidermal growth factor receptor (Homo sapiens), P00533 [UNDEFINED MUTATION] (P00533 whole entry, looked up, stated change not applied, the tested form may be a part): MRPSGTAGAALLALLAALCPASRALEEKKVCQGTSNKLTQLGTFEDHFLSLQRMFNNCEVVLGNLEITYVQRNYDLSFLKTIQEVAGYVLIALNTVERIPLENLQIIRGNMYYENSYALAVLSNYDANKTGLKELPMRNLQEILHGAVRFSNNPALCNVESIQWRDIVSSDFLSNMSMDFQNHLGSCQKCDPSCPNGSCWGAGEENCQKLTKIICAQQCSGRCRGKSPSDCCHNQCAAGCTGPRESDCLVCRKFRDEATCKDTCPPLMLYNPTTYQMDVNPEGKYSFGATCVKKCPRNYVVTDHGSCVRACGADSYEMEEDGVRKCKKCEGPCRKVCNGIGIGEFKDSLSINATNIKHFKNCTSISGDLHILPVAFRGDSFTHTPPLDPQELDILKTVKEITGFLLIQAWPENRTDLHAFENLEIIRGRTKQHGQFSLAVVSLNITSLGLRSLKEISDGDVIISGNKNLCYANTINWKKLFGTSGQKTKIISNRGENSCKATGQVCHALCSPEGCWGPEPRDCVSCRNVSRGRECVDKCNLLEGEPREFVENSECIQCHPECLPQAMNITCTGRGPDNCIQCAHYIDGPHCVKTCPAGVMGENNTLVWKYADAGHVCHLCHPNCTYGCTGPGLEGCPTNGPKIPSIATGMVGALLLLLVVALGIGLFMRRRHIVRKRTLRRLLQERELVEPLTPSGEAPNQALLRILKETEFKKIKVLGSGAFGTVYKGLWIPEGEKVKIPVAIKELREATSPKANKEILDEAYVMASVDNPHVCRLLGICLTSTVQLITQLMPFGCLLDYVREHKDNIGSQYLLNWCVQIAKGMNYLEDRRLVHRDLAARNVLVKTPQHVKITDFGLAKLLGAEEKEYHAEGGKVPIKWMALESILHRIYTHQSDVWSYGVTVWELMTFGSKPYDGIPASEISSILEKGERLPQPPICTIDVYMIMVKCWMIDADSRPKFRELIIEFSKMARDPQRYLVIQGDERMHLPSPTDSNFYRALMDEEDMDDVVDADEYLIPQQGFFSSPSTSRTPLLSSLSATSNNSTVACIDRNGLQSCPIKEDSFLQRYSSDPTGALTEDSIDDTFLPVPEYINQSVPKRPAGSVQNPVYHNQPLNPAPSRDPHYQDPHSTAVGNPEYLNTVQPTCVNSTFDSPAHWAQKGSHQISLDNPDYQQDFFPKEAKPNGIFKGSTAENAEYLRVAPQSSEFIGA
# [8] = target: Serine/threonine-protein kinase PAK 4 (Homo sapiens) (UniProt O96013); test: Binding affinity to wild-type human partial length PAK4 (Q144 to R438 residues) expressed in bacterial expression system assessed as residual binding level at 10 uM by Kinomescan method relative to control
# [9] = target: Cyclin-dependent kinase-like 2 (Homo sapiens) (UniProt Q92772); test: Binding affinity to wild-type human partial length CDKL2 (M1 to D327 residues) expressed in bacterial expression system assessed as residual binding level at 10 uM by Kinomescan method relative to control
# [10] = target: Cyclin-dependent kinase 4/cyclin D1 (Homo sapiens) (UniProt P11802+P24385); test: Binding affinity to wild-type human full length CDK4/cyclinD1 (M1 to E303 residues) expressed in mammalian expression system assessed as residual binding level at 10 uM by Kinomescan method relative to control
# [11] = target: Phosphatidylinositol 4,5-bisphosphate 3-kinase catalytic subunit beta isoform (Homo sapiens) (UniProt P42338); test: Binding affinity to wild-type human partial length PIK3CB (P118 to S1070 residues) expressed in mammalian expression system assessed as residual binding level at 10 uM by Kinomescan method relative to control
# [12] = target: Serine/threonine-protein kinase Sgk3 (Homo sapiens) (UniProt Q96BR1); test: Binding affinity to wild-type human partial length SGK3 (M119 to L496 residues) expressed in mammalian expression system assessed as residual binding level at 10 uM by Kinomescan method relative to control
# [13] = test system: Receptor-type tyrosine-protein kinase FLT3 (Homo sapiens), P36888 [UNDEFINED MUTATION]; test: Binding affinity to human partial length FLT3 ITD mutant expressed in bacterial expression system assessed as residual binding level at 10 uM by Kinomescan method relative to control
# [14] = target: Mitogen-activated protein kinase 11 (Homo sapiens) (UniProt Q15759); test: Binding affinity to wild-type human full length p38-beta (M1 to Q364 residues) expressed in bacterial expression system assessed as residual binding level at 10 uM by Kinomescan method relative to control
# [15] = target: Mitogen-activated protein kinase kinase kinase 13 (Homo sapiens) (UniProt O43283); test: Binding affinity to wild-type human full length LZK (M1 to W966 residues) expressed in mammalian expression system assessed as residual binding level at 10 uM by Kinomescan method relative to control
# Chain of Mitogen-activated protein kinase kinase kinase 13 (Homo sapiens) (O43283 whole entry, the tested form may be a part): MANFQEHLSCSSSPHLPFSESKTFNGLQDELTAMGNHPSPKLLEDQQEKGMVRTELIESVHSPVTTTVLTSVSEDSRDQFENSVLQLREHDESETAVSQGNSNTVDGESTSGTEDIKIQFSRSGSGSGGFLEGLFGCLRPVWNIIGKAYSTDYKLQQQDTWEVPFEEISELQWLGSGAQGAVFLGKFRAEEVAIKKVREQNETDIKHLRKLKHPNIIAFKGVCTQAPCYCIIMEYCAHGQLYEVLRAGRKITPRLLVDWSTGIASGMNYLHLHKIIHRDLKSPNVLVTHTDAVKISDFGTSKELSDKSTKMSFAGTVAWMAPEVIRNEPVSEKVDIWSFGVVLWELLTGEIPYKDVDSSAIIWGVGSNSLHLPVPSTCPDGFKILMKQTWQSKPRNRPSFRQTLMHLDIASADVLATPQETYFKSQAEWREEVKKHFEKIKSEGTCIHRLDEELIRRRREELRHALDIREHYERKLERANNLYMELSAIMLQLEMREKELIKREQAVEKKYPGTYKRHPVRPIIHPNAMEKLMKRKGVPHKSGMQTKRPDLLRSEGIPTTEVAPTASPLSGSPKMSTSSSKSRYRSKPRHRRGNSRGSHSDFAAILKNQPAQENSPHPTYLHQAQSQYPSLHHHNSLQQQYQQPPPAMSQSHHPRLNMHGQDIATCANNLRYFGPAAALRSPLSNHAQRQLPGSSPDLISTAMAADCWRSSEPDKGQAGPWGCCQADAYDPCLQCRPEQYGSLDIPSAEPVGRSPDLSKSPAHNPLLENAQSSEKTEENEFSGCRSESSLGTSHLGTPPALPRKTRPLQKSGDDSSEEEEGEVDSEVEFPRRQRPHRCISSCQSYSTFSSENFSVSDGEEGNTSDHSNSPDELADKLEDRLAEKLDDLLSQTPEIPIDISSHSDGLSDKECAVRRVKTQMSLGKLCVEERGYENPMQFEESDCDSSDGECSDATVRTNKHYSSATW
# [16] = target: Calcium/calmodulin-dependent protein kinase type II subunit gamma (Homo sapiens) (UniProt Q13555); test: Binding affinity to wild-type human partial length CAMK2G (R9 to A303 residues) expressed in bacterial expression system assessed as residual binding level at 10 uM by Kinomescan method relative to control
# Chain of Calcium/calmodulin-dependent protein kinase type II subunit gamma (Homo sapiens) (Q13555 whole entry, the tested form may be a part): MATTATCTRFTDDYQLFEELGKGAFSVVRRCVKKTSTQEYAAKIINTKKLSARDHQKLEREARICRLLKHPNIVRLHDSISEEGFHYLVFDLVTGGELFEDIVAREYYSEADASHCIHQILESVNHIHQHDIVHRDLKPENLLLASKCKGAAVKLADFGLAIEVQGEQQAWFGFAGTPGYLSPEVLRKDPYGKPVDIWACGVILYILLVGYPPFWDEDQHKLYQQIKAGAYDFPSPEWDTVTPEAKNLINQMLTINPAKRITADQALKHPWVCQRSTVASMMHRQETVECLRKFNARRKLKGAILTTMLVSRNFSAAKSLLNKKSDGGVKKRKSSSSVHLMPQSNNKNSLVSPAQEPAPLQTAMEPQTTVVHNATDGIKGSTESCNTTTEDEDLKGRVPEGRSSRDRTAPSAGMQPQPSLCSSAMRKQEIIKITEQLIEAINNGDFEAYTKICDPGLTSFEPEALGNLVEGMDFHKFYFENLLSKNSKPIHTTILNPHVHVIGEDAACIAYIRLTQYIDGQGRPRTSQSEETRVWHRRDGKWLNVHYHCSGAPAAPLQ
# [17] = target: Tyrosine-protein kinase Blk (Homo sapiens) (UniProt P51451); test: Binding affinity to wild-type human partial length BLK (G211 to L503 residues) expressed in bacterial expression system assessed as residual binding level at 10 uM by Kinomescan method relative to control
# [18] = target: Calcium/calmodulin-dependent protein kinase type 1B (Homo sapiens) (UniProt Q6P2M8); test: Binding affinity to wild-type human partial length CAMK1B (W9 to A311 residues) expressed in mammalian expression system assessed as residual binding level at 10 uM by Kinomescan method relative to control
# [19] = target: Macrophage colony-stimulating factor 1 receptor (Homo sapiens) (UniProt P07333); test: Binding affinity to wild-type human partial length autoinhibited CSF1R (Y538 to S939 residues) expressed in mammalian expression system assessed as residual binding level at 10 uM by Kinomescan method relative to control
# [20] = target: Activin receptor type-1-like (Homo sapiens) (UniProt P37023); test: Binding affinity to wild-type human ACVRL1 (L164 to Q503 residues) expressed in bacterial expression system assessed as residual binding level at 10 uM by Kinomescan method relative to control
# [21] = target: Ribosomal protein S6 kinase alpha-6 (Homo sapiens) (UniProt Q9UK32); test: Binding affinity to wild-type human partial length C-terminal RSK4 kinase domain 2 (I401 to Y711 residues) expressed in bacterial expression system assessed as residual binding level at 10 uM by Kinomescan method relative to control
# [22] = test system: Epidermal growth factor receptor (Homo sapiens), P00533 [UNDEFINED MUTATION]; test: Binding affinity to human partial length EGFR L747-T751del/Sins mutant expressed in bacterial expression system assessed as residual binding level at 10 uM by Kinomescan method relative to control
# [23] = test system: MDA-MB-231; test: Cytotoxicity against human MDA-MB-231 cells assessed as growth inhibition incubated for 48 hrs by Hoechst 33342 staining based assay; type: cell-based; details: MDA-MB-231, 48 h
# [24] = test system: MDR1; test: in vitro; details: dog, MDCK-MDR1
# Description: Apparent permeability across apical to basolateral side in MDCK2-MDR1 cells by HPLC analysis
# [25] = target: Serine/threonine-protein kinase Nek11 (Homo sapiens) (UniProt Q8NG66); test: Binding affinity to wild-type human partial length NEK11 (M1 to E313 residues) expressed in mammalian expression system assessed as residual binding level at 10 uM by Kinomescan method relative to control
# Chain of Serine/threonine-protein kinase Nek11 (Homo sapiens) (Q8NG66 whole entry, the tested form may be a part): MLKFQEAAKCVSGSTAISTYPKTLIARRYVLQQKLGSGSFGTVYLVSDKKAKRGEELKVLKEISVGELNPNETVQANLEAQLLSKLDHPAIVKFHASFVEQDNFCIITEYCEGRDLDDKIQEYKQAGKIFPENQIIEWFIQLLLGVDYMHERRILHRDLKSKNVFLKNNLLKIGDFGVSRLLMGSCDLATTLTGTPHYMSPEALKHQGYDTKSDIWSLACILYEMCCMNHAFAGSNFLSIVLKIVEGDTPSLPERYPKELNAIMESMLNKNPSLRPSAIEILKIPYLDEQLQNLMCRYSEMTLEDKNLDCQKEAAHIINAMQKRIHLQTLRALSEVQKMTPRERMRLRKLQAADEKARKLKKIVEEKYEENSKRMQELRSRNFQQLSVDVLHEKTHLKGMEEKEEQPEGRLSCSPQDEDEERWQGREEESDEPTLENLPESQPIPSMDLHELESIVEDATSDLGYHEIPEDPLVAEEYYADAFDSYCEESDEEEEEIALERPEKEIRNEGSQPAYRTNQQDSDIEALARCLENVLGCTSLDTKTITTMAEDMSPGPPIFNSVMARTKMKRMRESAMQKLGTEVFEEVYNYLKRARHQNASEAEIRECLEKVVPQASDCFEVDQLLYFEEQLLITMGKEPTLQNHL
# [26] = target: Ribosomal protein S6 kinase alpha-1 (Homo sapiens) (UniProt Q15418); test: Binding affinity to wild-type human partial length N-terminal RSK1 Kinase domain 1 (M1 to E388 residues) expressed in bacterial expression system assessed as residual binding level at 10 uM by Kinomescan method relative to control
compound,measurement,setting,value
O=C(Nc1cc(-c2cn(CCNc3c4c(nc5ccccc35)CCCC4)nn2)ccn1)Nc1cccc2c1C1CCCCN1C2=O (racemic),Activity,[1],0.2%
same,IC50,[2],5 µM
same,Activity,[3],79%
same,Activity,[4],10%
same,Activity,[5],100%
same,Activity,[6],78%
same,Activity,[7],79%
same,Activity,[8],14%
same,Activity,[9],0.1%
same,Activity,[10],1.1%
same,Activity,[11],53%
same,Activity,[12],1.3%
same,Activity,[13],1%
same,Activity,[14],74%
same,Activity,[15],13%
same,Activity,[16],64%
same,Activity,[17],44%
same,Activity,[18],100%
same,Activity,[19],0.54%
same,Activity,[20],100%
same,Activity,[21],57%
same,Activity,[22],75%
same,IC50,[23],2 µM
same,Papp A→B,[24],11.1 ×10⁻⁶ cm/s
same,Activity,[25],100%
same,Activity,[26],3.9%
